Source: ChEMBL document CHEMBL5338739, “Discovery of Dual Lysine Methyltransferase G9a and EZH2 Inhibitors with In Vivo Efficacy against Malignant Rhabdoid Tumor” (J Med Chem, 2023)
Calls of active or inactive are those of the source. The calls are words filed in the database; no cut-off is given here.

How the values were obtained:
[1] = tested on: SW982; assay: Cytotoxicity against human SW982 cells assessed as reduction in cell viability incubated for 72 hrs by MTT assay; assay type: functional
[2] = biological target: T1, Histone-lysine N-methyltransferase EZH2 (Homo sapiens, UniProt Q15910); assay: Inhibition of human EZH2 using SAM as substrate incubated for 1 hr by microplate luminescence based HMT assay
Target sequence in this assay (Q15910 whole entry): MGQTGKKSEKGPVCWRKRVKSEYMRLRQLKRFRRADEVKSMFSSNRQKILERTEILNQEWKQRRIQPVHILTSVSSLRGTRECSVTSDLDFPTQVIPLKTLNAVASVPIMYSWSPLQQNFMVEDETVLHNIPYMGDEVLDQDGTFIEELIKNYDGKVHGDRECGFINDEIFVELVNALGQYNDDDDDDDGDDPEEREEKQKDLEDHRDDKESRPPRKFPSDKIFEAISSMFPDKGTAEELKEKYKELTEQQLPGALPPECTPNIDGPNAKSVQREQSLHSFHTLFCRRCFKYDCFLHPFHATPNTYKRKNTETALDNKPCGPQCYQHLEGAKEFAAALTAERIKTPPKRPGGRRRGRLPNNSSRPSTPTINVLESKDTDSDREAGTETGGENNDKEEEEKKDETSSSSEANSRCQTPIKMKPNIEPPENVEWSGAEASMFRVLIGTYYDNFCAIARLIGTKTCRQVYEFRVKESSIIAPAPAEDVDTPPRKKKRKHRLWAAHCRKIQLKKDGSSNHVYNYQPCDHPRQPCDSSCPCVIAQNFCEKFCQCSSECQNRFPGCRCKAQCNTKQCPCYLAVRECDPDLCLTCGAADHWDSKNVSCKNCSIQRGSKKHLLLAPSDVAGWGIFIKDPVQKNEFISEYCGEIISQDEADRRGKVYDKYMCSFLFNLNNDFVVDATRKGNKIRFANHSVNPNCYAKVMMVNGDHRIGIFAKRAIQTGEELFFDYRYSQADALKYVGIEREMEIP

[3] = biological target: T2, Histone-lysine N-methyltransferase EHMT2 (Homo sapiens, UniProt Q96KQ7); assay: Inhibition of human recombinant EHMT2 G9a using SAM as substrate incubated for 1 hr by microplate luminescence based HMT assay
T2 sequence (Q96KQ7 whole entry): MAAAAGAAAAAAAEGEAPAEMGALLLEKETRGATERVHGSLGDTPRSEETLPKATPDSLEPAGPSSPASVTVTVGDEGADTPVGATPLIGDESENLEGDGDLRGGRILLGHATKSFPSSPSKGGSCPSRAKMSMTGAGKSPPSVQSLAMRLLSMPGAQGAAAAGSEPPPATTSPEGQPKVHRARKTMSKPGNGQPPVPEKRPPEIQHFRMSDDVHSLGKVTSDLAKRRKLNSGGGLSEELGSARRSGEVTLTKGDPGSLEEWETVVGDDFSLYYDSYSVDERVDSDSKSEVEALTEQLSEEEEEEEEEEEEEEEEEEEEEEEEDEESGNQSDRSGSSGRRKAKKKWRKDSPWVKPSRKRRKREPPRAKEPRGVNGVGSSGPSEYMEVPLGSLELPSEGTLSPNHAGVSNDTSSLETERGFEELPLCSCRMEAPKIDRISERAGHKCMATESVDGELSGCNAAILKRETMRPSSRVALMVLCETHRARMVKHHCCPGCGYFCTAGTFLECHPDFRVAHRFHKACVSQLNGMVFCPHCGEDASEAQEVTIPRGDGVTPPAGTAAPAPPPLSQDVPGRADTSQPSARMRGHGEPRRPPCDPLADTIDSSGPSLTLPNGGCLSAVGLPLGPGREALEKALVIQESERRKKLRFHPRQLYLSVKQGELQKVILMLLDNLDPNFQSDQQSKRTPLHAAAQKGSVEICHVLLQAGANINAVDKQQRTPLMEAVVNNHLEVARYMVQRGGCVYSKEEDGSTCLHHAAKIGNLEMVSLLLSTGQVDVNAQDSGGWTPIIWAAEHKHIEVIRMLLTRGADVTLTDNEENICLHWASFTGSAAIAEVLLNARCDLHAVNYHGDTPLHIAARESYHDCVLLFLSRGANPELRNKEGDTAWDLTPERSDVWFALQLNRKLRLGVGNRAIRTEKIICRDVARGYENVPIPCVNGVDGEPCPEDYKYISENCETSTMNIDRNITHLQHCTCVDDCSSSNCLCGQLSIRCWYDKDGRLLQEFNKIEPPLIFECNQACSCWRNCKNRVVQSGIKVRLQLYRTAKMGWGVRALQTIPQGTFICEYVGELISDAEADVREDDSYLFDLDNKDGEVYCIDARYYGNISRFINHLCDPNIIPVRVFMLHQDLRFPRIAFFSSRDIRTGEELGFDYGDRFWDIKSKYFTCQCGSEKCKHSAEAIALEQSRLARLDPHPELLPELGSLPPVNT

[4] = biological target: Histone-lysine N-methyltransferase SETD2 (Homo sapiens) (UniProt Q9BYW2); assay: Inhibition of SETD2 (unknown origin) using SAM as substrate at 10 uM by time-resolved fluorescence assay relative to control
Histone-lysine N-methyltransferase SETD2 (Homo sapiens), sequence (Q9BYW2 whole entry): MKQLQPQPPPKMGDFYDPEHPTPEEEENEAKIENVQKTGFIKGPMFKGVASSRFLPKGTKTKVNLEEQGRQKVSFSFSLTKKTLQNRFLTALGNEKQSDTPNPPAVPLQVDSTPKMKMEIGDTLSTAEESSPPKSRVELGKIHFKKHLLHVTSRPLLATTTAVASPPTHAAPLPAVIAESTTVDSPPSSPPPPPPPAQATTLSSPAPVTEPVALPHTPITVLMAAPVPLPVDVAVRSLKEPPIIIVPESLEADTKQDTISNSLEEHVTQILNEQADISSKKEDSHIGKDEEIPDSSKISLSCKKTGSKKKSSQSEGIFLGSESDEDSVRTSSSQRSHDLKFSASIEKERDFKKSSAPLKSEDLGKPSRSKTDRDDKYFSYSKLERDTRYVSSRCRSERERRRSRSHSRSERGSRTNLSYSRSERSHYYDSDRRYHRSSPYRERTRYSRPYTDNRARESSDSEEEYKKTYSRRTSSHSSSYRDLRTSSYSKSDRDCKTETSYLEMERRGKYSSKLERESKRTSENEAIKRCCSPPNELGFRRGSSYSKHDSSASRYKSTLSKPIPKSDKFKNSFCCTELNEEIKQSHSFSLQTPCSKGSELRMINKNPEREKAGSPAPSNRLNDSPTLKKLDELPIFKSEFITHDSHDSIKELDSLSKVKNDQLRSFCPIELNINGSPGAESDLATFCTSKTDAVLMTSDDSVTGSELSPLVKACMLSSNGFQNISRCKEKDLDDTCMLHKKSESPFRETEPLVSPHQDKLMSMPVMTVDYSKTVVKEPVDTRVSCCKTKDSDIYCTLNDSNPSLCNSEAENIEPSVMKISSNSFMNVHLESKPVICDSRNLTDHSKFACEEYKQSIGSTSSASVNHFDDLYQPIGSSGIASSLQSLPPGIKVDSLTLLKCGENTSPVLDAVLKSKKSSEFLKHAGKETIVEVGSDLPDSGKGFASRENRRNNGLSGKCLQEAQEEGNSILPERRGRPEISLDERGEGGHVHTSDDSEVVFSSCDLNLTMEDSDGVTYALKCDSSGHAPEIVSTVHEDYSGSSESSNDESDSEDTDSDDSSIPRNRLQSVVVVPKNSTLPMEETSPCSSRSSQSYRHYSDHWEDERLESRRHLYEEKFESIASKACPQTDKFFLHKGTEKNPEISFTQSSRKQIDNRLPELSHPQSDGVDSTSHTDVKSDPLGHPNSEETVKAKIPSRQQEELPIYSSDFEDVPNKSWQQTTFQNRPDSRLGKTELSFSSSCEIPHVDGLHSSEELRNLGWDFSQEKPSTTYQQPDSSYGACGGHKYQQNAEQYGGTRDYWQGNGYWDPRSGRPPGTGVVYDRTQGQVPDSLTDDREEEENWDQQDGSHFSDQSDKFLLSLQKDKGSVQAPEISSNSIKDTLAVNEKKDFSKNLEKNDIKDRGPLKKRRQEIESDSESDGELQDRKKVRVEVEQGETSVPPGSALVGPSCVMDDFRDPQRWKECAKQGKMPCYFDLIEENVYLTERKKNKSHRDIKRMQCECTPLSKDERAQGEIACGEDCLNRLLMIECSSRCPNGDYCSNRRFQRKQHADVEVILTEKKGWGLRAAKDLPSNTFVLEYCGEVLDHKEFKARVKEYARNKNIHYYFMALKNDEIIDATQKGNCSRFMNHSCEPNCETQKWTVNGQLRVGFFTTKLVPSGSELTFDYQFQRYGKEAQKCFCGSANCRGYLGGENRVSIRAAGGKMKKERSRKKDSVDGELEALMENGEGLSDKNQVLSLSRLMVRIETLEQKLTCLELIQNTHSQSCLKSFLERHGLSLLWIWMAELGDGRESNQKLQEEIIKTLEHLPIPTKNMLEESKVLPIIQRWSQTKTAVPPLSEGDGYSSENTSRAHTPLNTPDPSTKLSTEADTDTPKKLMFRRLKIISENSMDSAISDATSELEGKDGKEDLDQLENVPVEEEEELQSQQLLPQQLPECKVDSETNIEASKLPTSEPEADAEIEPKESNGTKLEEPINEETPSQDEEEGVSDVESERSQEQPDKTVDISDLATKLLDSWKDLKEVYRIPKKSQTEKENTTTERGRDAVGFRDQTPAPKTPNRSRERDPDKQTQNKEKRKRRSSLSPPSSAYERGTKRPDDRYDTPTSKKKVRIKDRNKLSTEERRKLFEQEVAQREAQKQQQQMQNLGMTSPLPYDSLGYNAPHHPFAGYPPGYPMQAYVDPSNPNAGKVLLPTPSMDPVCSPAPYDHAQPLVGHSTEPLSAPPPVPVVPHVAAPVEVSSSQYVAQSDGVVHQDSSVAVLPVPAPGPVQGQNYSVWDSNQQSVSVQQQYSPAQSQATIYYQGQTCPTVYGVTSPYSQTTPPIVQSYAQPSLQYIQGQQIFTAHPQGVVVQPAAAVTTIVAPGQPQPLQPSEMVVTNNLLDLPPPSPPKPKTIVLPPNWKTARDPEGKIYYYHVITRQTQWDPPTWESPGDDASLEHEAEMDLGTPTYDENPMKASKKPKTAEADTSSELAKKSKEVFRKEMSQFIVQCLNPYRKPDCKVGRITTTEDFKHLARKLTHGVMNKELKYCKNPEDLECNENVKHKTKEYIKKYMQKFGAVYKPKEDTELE

[5] = biological target: T1, Histone-lysine N-methyltransferase EZH2; assay: Inhibition of human EZH2 using SAM as substrate at 10 uM by time-resolved fluorescence assay relative to control
Target sequence in this assay (Q15910 whole entry, looked up): as the sequence (Q15910 whole entry) above

[6] = Clearance in Sprague-Dawley rat at 10 mg/kg, iv administered for 12 hrs by HPLC analysis; assay type: ADME, organism-based; settings: in vivo
[7] = Apparent volume of distribution in Sprague-Dawley rat at 30 mg/kg, po administered for 24 hrs by HPLC analysis; assay type: ADME, organism-based; settings: in vivo
[8] = AUC (0 to 24 hrs) in Sprague-Dawley rat at 10 mg/kg, iv administered for 12 hrs by HPLC analysis; assay type: ADME, organism-based; parameters: dose 10 mg/kg, time 12 hrs, route iv; settings: in vivo
[9] = AUC (0 to 24 hrs) in Sprague-Dawley rat at 30 mg/kg, po administered for 24 hrs by HPLC analysis; assay type: ADME, organism-based; parameters: time 24 hrs, dose 30 mg/kg, route po; settings: in vivo
[10] = Cytotoxicity against human L02 cells assessed as reduction in cell viability incubated for 72 hrs by MTT assay; assay type: toxicity, cell-based
[11] = Cytotoxicity against human MCF-10A cells assessed as reduction in cell viability incubated for 72 hrs by MTT assay; assay type: toxicity, cell-based
[12] = biological target: T3, Histone-lysine N-methyltransferase EHMT2 (Homo sapiens) (UniProt Q96KQ7); assay: Binding affinity to recombinant EHMT2 G9a in human RD cells assessed as decrease in […] incubated for 1 hr by DARTS analysis; assay type: cell-based; settings: dose 5-20 µM
T3 sequence (whole entry): T2 sequence (Q96KQ7 whole entry)

[13] = biological target: T1, Histone-lysine N-methyltransferase EZH2; assay: Binding affinity to EZH2 in human RD cells assessed as increase in protein thermal stability at 5 uM incubated for 4 hrs by CETSA based Western blot analysis; assay type: cell-based
Target sequence in this assay (Q15910 whole entry, looked up): as the sequence (Q15910 whole entry) above

[14] = tested on: SW982; assay: Antiproliferative activity against human SW982 cells assessed as reduction in clone formation rate at 5 uM for 1 to 2 weeks with fresh medium replacement for every 2 to 3 days by crystal violet staining based microscopic analysis; assay type: functional, cell-based; settings: time 1-2 weeks
[15] = Plasma protein binding in Kunming mouse by equilibrium dialysis method; assay type: ADME, cell-free; settings: read-out: PPB (converted)
[16] = tested on: RD; assay: Antitumor activity against human RD cells xenografted in BALB/c nude mouse assessed as tumor growth inhibition at 10 to 20 mg/kg, ip administered for 5 consecutive days followed by 2 rest days for 3 weeks; assay type: functional; settings: dose 10-20 mg/kg
[17] = Toxicity in BALB/c nude mouse xenografted with human RD cells assessed as body weight fluctuations at 10 to 20 mg/kg, ip administered for 5 consecutive days followed by 2 rest days for 3 weeks; assay type: organism-based; settings: in vivo, 504 h, dose 10-20 mg/kg
[18] = Toxicity in BALB/c nude mouse xenografted with human RD cells assessed as effect on spleen viscera index at 10 to 20 mg/kg, ip administered for 5 consecutive days followed by 2 rest days for 3 weeks; assay type: organism-based; settings: in vivo, 504 h, dose 10-20 mg/kg
[19] = Toxicity in BALB/c nude mouse xenografted with human RD cells assessed as effect on kidney viscera index at 10 to 20 mg/kg, ip administered for 5 consecutive days followed by 2 rest days for 3 weeks; assay type: organism-based; settings: in vivo, 504 h, dose 10-20 mg/kg
[20] = tested on: RD; assay: Antiproliferative activity against EZH2 and G9a knockdown human RD cells assessed as reduction in clone formation rate at 5 uM for 1 to 2 weeks with fresh medium replacement for every 2 to 3 days by crystal violet staining based microscopic analysis; assay type: functional, cell-based; settings: time 1-2 weeks
[21] = tested on: RD; assay: Antitumor activity against EZH2 and G9a knockdown human RD cells xenografted in BALB/c nude mouse assessed as tumor growth inhibition at 20 mg/kg, ip administered for 15 days; assay type: functional, organism-based; settings: time 15.0 day
[22] = tested on: RD; assay: Downregulation of H3K79me1 expression in human RD cells at 5 uM incubated for 6 days by immunoblotting analysis; assay type: functional, cell-based; settings: time 6.0 day
[23] = tested on: RD; assay: Downregulation of H3K79me3 expression in human RD cells at 5 uM incubated for 6 days by immunoblotting analysis; assay type: functional, cell-based; settings: time 6.0 day
[24] = tested on: RD; assay: Downregulation of H3K36me2 expression in human RD cells at 5 uM incubated for 6 days by immunoblotting analysis; assay type: functional, cell-based; settings: time 6.0 day

With `COc1cc2c(NCc3c(C)cc(C)[nH]c3=O)nc(N3CCC(F)(F)CC3)nc2cc1OCCCN1CCCC1` the CC50 [1] was 19.9 µM, the IC50 [2] was 0.00435 µM and the IC50 [3] was 0.0029 µM. It also gave an inhibition [4] of -5.18%, an inhibition [5] of 98.3% and a CL [6] of 15.14 mL/min/kg. For the same compound, the Vc [7] was 17.518 L/kg, the AUC(0-t) at 12 h [8] was 1940 ng·h/mL and the AUC(0-t) at 24 h [9] was 5350 ng·h/mL. For the same compound, the CC50 at 72 h [10] was over 100 µM, the CC50 at 72 h [11] was over 100 µM and the Activity [12] was “Dose-Dependent Effect”. For the same compound, the Activity [13] was “Active”, the Activity [14] was “Active” and the fraction unbound [15] was 0.186. The TGI [16] was 86.6%, the Activity [17] was “Non-Toxic” and the Activity [18] was “Non-Toxic”. The Activity [19] was “Non-Toxic”, the Activity [20] was “inactive” and the inhibition [21] was “inactive”. For the same compound, the Activity [22] was “inactive”, the Activity [23] was “inactive” and the Activity [24] was “inactive”.
